In PubChem BioAssay AID1552 (Sanford-Burnham Center for Chemical Genomics, 2009):
Calls of active or inactive are those of the source. No rule for the calls is given here.

These compounds were tested against Ubiquitin-conjugating enzyme E2 N (Homo sapiens) (UniProt P61088) (assay: NMR detection of UBE2N ligand binding – biophysical, purified protein (AID 1552)). Conditions: NMR binding to purified UBE2N.
Chain of Ubiquitin-conjugating enzyme E2 N (Homo sapiens) (P61088 whole entry, looked up): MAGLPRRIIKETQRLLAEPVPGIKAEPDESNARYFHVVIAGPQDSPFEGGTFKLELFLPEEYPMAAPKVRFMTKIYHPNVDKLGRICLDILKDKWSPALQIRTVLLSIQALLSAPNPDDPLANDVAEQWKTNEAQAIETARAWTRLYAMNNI
Nc1ccccc1C(=O)N1CCNC(=O)C1 was tested, and the Kd was > 4 mM (inactive). With Cc1cc(O)cc(=O)n1CCCC(=O)O the Kd was > 4 mM (inactive). Cc1ccc2c(C)c(C(=O)Nc3nnc(C)s3)oc2c1 was tested, and the Kd was > 4 mM (inactive). O=C(Nc1nc2ccccc2s1)c1ccc(=O)[nH]n1 was tested, and the Kd was > 4 mM (inactive). With COC(=O)Cc1cccc(OC)c1 the Kd was > 4 mM (inactive). For COc1cc2nc[nH]c(=O)c2cc1OC, the Kd was > 4 mM (inactive). With CN=C(C)c1c(O)n(C)c(=O)n(C)c1=O the Kd was > 4 mM (inactive). With CC(=O)NCc1nc2ccccc2[nH]1 the Kd was > 4 mM (inactive). In the case of CCOC(=O)C1=C(O)CCN(C)C1, the Kd is reported as > 4 mM (inactive). In the case of Cc1nnc(Nc2ccc(S(N)(=O)=O)cc2)[nH]c1=O, the Kd is reported as > 4 mM (inactive). For CC(=O)O[C@H]1C[C@@H](OC(C)=O)C(C)(C)C2CC(=O)[C@]3(C)C(CC[C@@]4(C)[C@H](C(=O)O)OC(=O)C5OC543)[C@]21C (some centres not stated), the Kd was > 4 mM (inactive). With CCCCCCCCCCCCCCC(C(=O)O)C(O)(CC(=O)OC)C(=O)O (configuration not stated) the Kd was > 4 mM (inactive). COc1cc2ccc(=O)oc2c2ccoc12 was tested, and the Kd was > 4 mM (inactive). For Cc1csc2nc3ccccc3c(=O)n12, the Kd was > 4 mM (inactive). For O=C(O)c1cccnc1N1CCCC1, the Kd was > 4 mM (inactive). CC1(C(=O)O)CC2C=CC1C2 (configuration not stated) was tested, and the Kd was > 4 mM (inactive). Cc1cc(NC(=O)CCCn2cnc([N+](=O)[O-])n2)no1 was tested, and the Kd was > 4 mM (inactive). With O=C1Cc2ccccc2N1c1ccccc1 the Kd was > 4 mM (inactive). In the case of CS(C)=C1C(=O)NC(=O)N(c2ccccc2)C1=O, the Kd is reported as > 4 mM (inactive). With CC(=O)c1ccc(NC(=O)c2ocnc2C)cc1 the Kd was > 4 mM (inactive). O=C(Nn1cnnc1)c1ccccc1Cl was tested, and the Kd was > 4 mM (inactive). CC(=O)Oc1cc(OC(C)=O)c2c(c1)O[C@H](c1ccc(OC(C)=O)c(OC(C)=O)c1)[C@H](OC(C)=O)C2 was tested, and the Kd was > 4 mM (inactive). O=C1NC(=O)/C(=C\c2ccncc2)S1 was tested, and the Kd was > 4 mM (inactive). In the case of COc1ccccc1NC(=O)/C=N/O, the Kd is reported as > 4 mM (inactive). O=c1ccc2ccccc2o1 was tested, and the Kd was > 4 mM (inactive). In the case of COc1ccc(Cl)cc1-c1n[nH]c(=S)n1C, the Kd is reported as > 4 mM (inactive). O=C1CCCC2C3CC(CN12)[C@@H]1CCCCN1C3 (some centres not stated) was tested, and the Kd was > 4 mM (inactive). With CC[C@@H]1[C@@H](O)N2C3C[C@H]1C1C(O)[C@]4(C[C@@H]12)c1ccccc1N(C)[C@@H]34 (some centres not stated) the Kd was > 4 mM (inactive). In the case of O=c1c[n+]([O-])c2ccccc2n1OCc1ccccc1, the Kd is reported as > 4 mM (inactive). COc1cc(C(C)=O)cc(OC)c1O was tested, and the Kd was > 4 mM (inactive). With Cc1cc(NC(=O)c2cnn3cccnc23)no1 the Kd was > 4 mM (inactive). For COC(=O)/C(C)=C\CC12OC(C)(C)C3CC(C=C4C(=O)c5c(OC)c6c(c(CC=C(C)C)c5OC431)OC(C)(CCC=C(C)C)C=C6)C2=O (configuration not stated), the Kd was > 4 mM (inactive). With Nc1nc(-c2cccnc2)nn1C(=O)Cc1ccccc1 the Kd was > 4 mM (inactive). For Cn1c(SCC(N)=O)nc2ccccc2c1=O, the Kd was > 4 mM (inactive). With O=C(NC1=NCCS1)c1ccc([N+](=O)[O-])cc1Cl the Kd was > 4 mM (inactive). OCc1ccccc1CN1CCOCC1 was tested, and the Kd was > 4 mM (inactive). For Cc1ccc2[nH]c3nc(=S)[nH]nc3c2c1, the Kd was > 4 mM (inactive). For CC(=O)Nc1cc(C(F)(F)F)ccc1N1CCOCC1, the Kd was > 4 mM (inactive). With O=C(c1ccc2c(c1)OCO2)N1CCC2(CC1)OCCO2 the Kd was > 4 mM (inactive). With O=c1oc2c(O)c(O)cc3c(=O)oc4c(O)c(O)cc1c4c23 the Kd was > 4 mM (inactive). Nc1cc(C(F)(F)F)ccc1N1CCOCC1 was tested, and the Kd was > 4 mM (inactive). Nc1ncnc2nc[nH]c12 was tested, and the Kd was > 4 mM (inactive). In the case of NC(=O)c1ccc(C(N)=O)cc1, the Kd is reported as > 4 mM (inactive). With O=C(O)c1ccc2nsnc2c1 the Kd was > 4 mM (inactive). In the case of O=C(O)Cn1nc(-c2ccccc2)c2ccccc2c1=O, the Kd is reported as > 4 mM (inactive). With COC(=O)c1noc(-c2ccc(OC)cc2)n1 the Kd was > 4 mM (inactive). CNC(Cc1c[nH]c2ccccc12)C(=O)O (configuration not stated) was tested, and the Kd was > 4 mM (inactive). In the case of CCC(C)C(=O)OC1[C@@H]2CC3=C4CC(=O)O[C@@H](c5ccoc5)[C@]4(C)CCC3C(C)(C2=O)[C@@H](CC(=O)OC)C1(C)C (some centres not stated), the Kd is reported as > 4 mM (inactive). CC(=O)Nc1ccccc1OCC(N)=O was tested, and the Kd was > 4 mM (inactive). In the case of O=C1CCC([N+](=O)[O-])C(c2ccccc2F)N1 (configuration not stated), the Kd is reported as > 4 mM (inactive). Nc1ccc(-c2csnn2)cc1 was tested, and the Kd was > 4 mM (inactive). In the case of CSc1nc2[nH]ncc2c(=O)[nH]1, the Kd is reported as > 4 mM (inactive). For COCCn1c(SC)nc2c1c(=O)[nH]c(=O)n2C, the Kd was > 4 mM (inactive). In the case of COC1=C(OC)C(=O)C(C/C=C(\C)CC/C=C(\C)CC/C=C(\C)CC/C=C(/C)CC/C=C(\C)CC/C=C(\C)CC/C=C(\C)CC/C=C(\C)CC/C=C(\C)CCC=C(C)C)=C(C)C1=O, the Kd is reported as > 4 mM (inactive). In the case of CN1CCC(O)N1C(=O)c1ccccc1O (configuration not stated), the Kd is reported as > 4 mM (inactive). For CC[C@@]1(O)C[C@H](O)c2c(cc3c(c2O)C(=O)c2c(O)ccc(O)c2C3=O)[C@H]1C(=O)OC, the Kd was > 4 mM (inactive). In the case of O=C(c1ccc(F)cc1)N1CCN(c2ncccn2)CC1, the Kd is reported as > 4 mM (inactive).
